In ChEMBL document CHEMBL1201862, “PubChem BioAssay data set” (2004):
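Test compounds were applied to cells in 96-well plates for 48 hours at 5 doses. GI50 is the concentration that inhibits growth by half.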 Active and inactive are the calls of the source. No stated cut-off is given here; in the data, active = GI50 up to about 1.1 µM and inactive = higher.

What was measured:
Assay in all cases: NCI-60 cell line screen, 48 h
COLO 205 = system: COLO 205
KM12 = system: KM12
SF-295 = system: SF-295
RPMI-8226 = system: RPMI-8226
SNB-19 = system: SNB-19
SK-MEL-2 = system: SK-MEL-2
UACC-62 = system: UACC-62
786-0 = system: 786-0
T47D = system: T47D
ACHN = system: ACHN
SK-OV-3 = system: SK-OV-3
UACC-257 = system: UACC-257
OVCAR-3 = system: OVCAR-3
SR = system: SR
RXF 393 = system: RXF 393
MDA-N = system: MDA-N
MCF7 = system: MCF7
UO-31 = system: UO-31
EKVX = system: EKVX
OVCAR-5 = system: OVCAR-5
HOP-62 = system: HOP-62
SK-MEL-5 = system: SK-MEL-5
MDA-MB-231 = system: MDA-MB-231
PC-3 = system: PC-3
SW-620 = system: SW-620
SK-MEL-28 = system: SK-MEL-28
SN12C = system: SN12C
Hs-578T = system: Hs-578T
K562 = system: K562
HCT-116 = system: HCT-116
A549 = system: A549
MDA-MB-435 = system: MDA-MB-435
TK-10 = system: TK-10
M14 = system: M14
HCC 2998 = system: HCC 2998
NCI-H460 = system: NCI-H460
HT-29 = system: HT-29
NCI-H23 = system: NCI-H23
MOLT-4 = system: MOLT-4
CCRF-CEM = system: CCRF-CEM
U-251 = system: U-251
DU-145 = system: DU-145
OVCAR-4 = system: OVCAR-4
OVCAR-8 = system: OVCAR-8
LOX IMVI = system: LOX IMVI
IGROV-1 = system: IGROV-1
HL-60 = system: HL-60
SF-268 = system: SF-268
Malme-3M = system: Malme-3M
NCI/ADR-RES = system: NCI/ADR-RES
BT-549 = system: BT-549
SNB-75 = system: SNB-75
CAKI-1 = system: CAKI-1
HCT-15 = system: HCT-15
NCI-H226 = system: NCI-H226

## CCOC(=O)C1CN(C2CC2)CCC1=O (stereo not given)
COLO 205
  GI50: > 100 µM (inactive)
KM12
  GI50: > 100 µM (inactive)
SF-295
  GI50: > 100 µM (inactive)
RPMI-8226
  GI50: > 100 µM (inactive)
SNB-19
  GI50: > 100 µM (inactive)
SK-MEL-2
  GI50: > 100 µM (inactive)
UACC-62
  GI50: > 100 µM (inactive)
786-0
  GI50: > 100 µM (inactive)
T47D
  GI50: > 100 µM (inactive)
ACHN
  GI50: > 100 µM (inactive)
SK-OV-3
  GI50: > 100 µM (inactive)
UACC-257
  GI50: > 100 µM (inactive)
OVCAR-3
  GI50: > 100 µM (inactive)
SR
  GI50: > 100 µM (inactive)
RXF 393
  GI50: > 100 µM (inactive)
MDA-N
  GI50: > 100 µM (inactive)
MCF7
  GI50: > 100 µM (inactive)
UO-31
  GI50: > 100 µM (inactive)
EKVX
  GI50: > 100 µM (inactive)
OVCAR-5
  GI50: > 100 µM (inactive)
HOP-62
  GI50: > 100 µM (inactive)
SK-MEL-5
  GI50: > 100 µM (inactive)
MDA-MB-231
  GI50: > 100 µM (inactive)
PC-3
  GI50: > 100 µM (inactive)
SW-620
  GI50: > 100 µM (inactive)
SK-MEL-28
  GI50: > 100 µM (inactive)
SN12C
  GI50: > 100 µM (inactive)
Hs-578T
  GI50: > 100 µM (inactive)
K562
  GI50: > 100 µM (inactive)
HCT-116
  GI50: > 100 µM (inactive)
A549
  GI50: > 100 µM (inactive)
MDA-MB-435
  GI50: > 100 µM (inactive)
TK-10
  GI50: > 100 µM (inactive)
M14
  GI50: > 100 µM (inactive)
HCC 2998
  GI50: > 100 µM (inactive)
NCI-H460
  GI50: > 100 µM (inactive)
HT-29
  GI50: > 100 µM (inactive)
NCI-H23
  GI50: > 100 µM (inactive)
MOLT-4
  GI50: > 100 µM (inactive)
CCRF-CEM
  GI50: > 100 µM (inactive)
U-251
  GI50: > 100 µM (inactive)
DU-145
  GI50: > 100 µM (inactive)
OVCAR-4
  GI50: > 100 µM (inactive)
OVCAR-8
  GI50: > 100 µM (inactive)
LOX IMVI
  GI50: > 100 µM (inactive)
IGROV-1
  GI50: > 100 µM (inactive)
HL-60
  GI50: > 100 µM (inactive)
SF-268
  GI50: > 100 µM (inactive)
Malme-3M
  GI50: > 100 µM (inactive)
NCI/ADR-RES
  GI50: > 100 µM (inactive)
BT-549
  GI50: > 100 µM (inactive)
SNB-75
  GI50: > 100 µM (inactive)
CAKI-1
  GI50: > 100 µM (inactive)
HCT-15
  GI50: > 100 µM
NCI-H226
  GI50: > 100 µM (inactive)
